Among the data in PubChem BioAssay (NCI) are TGI values, retold here.

Among the test systems are HCC-2998 colon; NCI-H460 lung; SW-620 colon; KM12 colon; SK-OV-3 ovarian; SF-268 CNS; MDA-MB-435; RXF 393 renal; RPMI-8226 leukemia; HL-60(TB) leukemia; UACC-257 melanoma; NCI-H23 lung; SN12C renal; SK-MEL-2 melanoma; TK-10 renal; M14 melanoma; EKVX NSCLC; SF-295 CNS; HT29 colon; SNB-75 CNS.
Common to all, as to test: inhibition of tumour cell growth, NCI panel, 48 h

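Protocol summary: plate cells (96-well), add compound at 5 concentrations, incubate 48 h, interpolate endpoints linearly. The concentration for full growth arrest is given as TGI.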

As to `CCOC(=O)C1=C(C)C2C=C(c3cccs3)CC(c3ccc(Cl)cc3)=C2OC1=O` (stereo not given), the TGI was 77.3 µM with HCC-2998 colon; > 100 µM in the assay with NCI-H460 lung; > 100 µM in the assay with SW-620 colon; 39.8 µM in the assay with KM12 colon; > 100 µM in the assay with SK-OV-3 ovarian; > 100 µM with SF-268 CNS. Moreover, the TGI is > 100 µM in the assay on MDA-MB-435; > 100 µM in the assay on RXF 393 renal; 38 µM with RPMI-8226 leukemia; 31.6 µM in the assay on HL-60(TB) leukemia; > 100 µM in the assay with UACC-257 melanoma; > 100 µM in the assay with NCI-H23 lung. Moreover, the TGI with SN12C renal, in the assay on SK-MEL-2 melanoma, with TK-10 renal, in the assay with M14 melanoma, with EKVX NSCLC and with SF-295 CNS was > 100 µM each time. The TGI with HT29 colon and in the assay with SNB-75 CNS was > 100 µM each time.
For `O=C(/C=C/c1ccc2c(c1)OCO2)CC(=O)C(=O)c1c[nH]c2ccccc12`, the TGI with HCC-2998 colon was 48.4 µM; in the assay on NCI-H460 lung it was > 100 µM; with SW-620 colon it was > 100 µM; in the assay on KM12 colon, > 100 µM; with SK-OV-3 ovarian it was > 100 µM; with SF-268 CNS, > 100 µM. Further, the TGI in the assay with MDA-MB-435 is 68.5 µM; with RXF 393 renal it was 96.6 µM; in the assay on RPMI-8226 leukemia, > 100 µM; in the assay with HL-60(TB) leukemia, > 100 µM; in the assay on UACC-257 melanoma it was > 100 µM; in the assay on NCI-H23 lung, > 100 µM. Also, the TGI in the assay on SN12C renal, in the assay on SK-MEL-2 melanoma, in the assay on TK-10 renal, in the assay on M14 melanoma, with EKVX NSCLC and with SF-295 CNS was > 100 µM each time. The TGI was > 100 µM in the assay with HT29 colon and 96.6 µM in the assay with SNB-75 CNS.
Consider `c1c[nH]c(-c2ccc(-c3ccc[nH]3)c3nsnc23)c1`, for which the TGI in the assay on HCC-2998 colon, with NCI-H460 lung, in the assay on SW-620 colon, in the assay on KM12 colon, in the assay on SK-OV-3 ovarian and in the assay with SF-268 CNS was > 100 µM throughout. The TGI in the assay on MDA-MB-435 was > 70.9 µM; in the assay on RXF 393 renal, > 66.8 µM; with RPMI-8226 leukemia, > 52.6 µM; in the assay on HL-60(TB) leukemia, > 100 µM; in the assay with UACC-257 melanoma it was > 100 µM; with NCI-H23 lung, 79.6 µM. For the same compound, the TGI in the assay with SN12C renal was > 100 µM; in the assay on SK-MEL-2 melanoma it was > 100 µM; in the assay on TK-10 renal, > 100 µM; with M14 melanoma, > 63 µM; with EKVX NSCLC it was > 58.4 µM; with SF-295 CNS, > 100 µM. For the same compound, the TGI is > 37.8 µM with HT29 colon and > 85.8 µM in the assay on SNB-75 CNS.
In the case of `CC(=N/N=C/c1ccccn1)/C(C)=N/N=C(C)/C(C)=N/N=C(C)/C(C)=N/N=C(C)/C(C)=N\N=C\c1ccccn1`, the TGI in the assay with HCC-2998 colon, in the assay on NCI-H460 lung, in the assay with SW-620 colon, in the assay with KM12 colon, with SK-OV-3 ovarian and in the assay with SF-268 CNS was > 100 µM throughout. Also, the TGI in the assay on MDA-MB-435, in the assay with RXF 393 renal, in the assay on RPMI-8226 leukemia, in the assay on HL-60(TB) leukemia, in the assay with UACC-257 melanoma and in the assay on NCI-H23 lung was > 100 µM throughout. Moreover, the TGI with SN12C renal, in the assay on SK-MEL-2 melanoma, in the assay on TK-10 renal, in the assay on M14 melanoma, in the assay with EKVX NSCLC and with SF-295 CNS was > 100 µM each time. Moreover, the TGI in the assay with HT29 colon and in the assay with SNB-75 CNS was > 100 µM each time.
On to `COc1ccc(NC(=O)CC(=O)N2N=C(N3c4ccccc4Sc4ccccc43)CC2c2ccccc2)cc1` (stereo not given), for which the TGI in the assay with HCC-2998 colon was > 100 µM; in the assay with NCI-H460 lung it was > 100 µM; in the assay with SW-620 colon it was > 100 µM; in the assay on KM12 colon it was > 100 µM; with SK-OV-3 ovarian it was > 100 µM; in the assay on SF-268 CNS, 82.9 µM. For the same compound, the TGI in the assay on MDA-MB-435, in the assay with RXF 393 renal, in the assay on RPMI-8226 leukemia, in the assay on HL-60(TB) leukemia, in the assay on UACC-257 melanoma and with NCI-H23 lung was > 100 µM in each case. In addition, the TGI in the assay on SN12C renal, in the assay with SK-MEL-2 melanoma, with TK-10 renal, in the assay on M14 melanoma, with EKVX NSCLC and in the assay with SF-295 CNS was > 100 µM throughout. The TGI in the assay with HT29 colon and with SNB-75 CNS was > 100 µM in each case.
Consider `CCCCCCOc1ccc(C(=O)NOC)cc1`, for which the TGI in the assay on HCC-2998 colon, in the assay with NCI-H460 lung, in the assay with SW-620 colon, in the assay on KM12 colon, in the assay with SK-OV-3 ovarian and with SF-268 CNS was > 100 µM in each case. The TGI in the assay on MDA-MB-435 was > 100 µM; in the assay on RXF 393 renal, > 100 µM; with RPMI-8226 leukemia, > 100 µM; in the assay with HL-60(TB) leukemia, 86.8 µM; with UACC-257 melanoma it was > 100 µM; in the assay with NCI-H23 lung, > 100 µM. Besides, the TGI in the assay on SN12C renal, in the assay with SK-MEL-2 melanoma, in the assay with TK-10 renal, in the assay on M14 melanoma, in the assay on EKVX NSCLC and in the assay on SF-295 CNS was > 100 µM throughout. The TGI in the assay with HT29 colon and in the assay with SNB-75 CNS was > 100 µM each time.
